Assay results from ChEMBL document CHEMBL1201862, “PubChem BioAssay data set” (2004).
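48-hour exposure; five concentrations; linearly interpolated endpoints. GI50 is the concentration that inhibits growth by half.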 The source made the active and inactive calls. Cut-off read from the data, not from the text of the source: active = GI50 up to about 1.1 µM and inactive = higher.

Key:
Assay in all cases: inhibition of tumour cell growth, NCI panel, 48 h
[1] = tested on: CAKI-1
[2] = tested on: COLO 205
[3] = tested on: EKVX
[4] = tested on: IGROV-1
[5] = tested on: K562
[6] = tested on: M14
[7] = tested on: OVCAR-3
[8] = tested on: OVCAR-4
[9] = tested on: OVCAR-5
[10] = tested on: OVCAR-8
[11] = tested on: RXF 393
[12] = tested on: SF-539
[13] = tested on: SK-MEL-28
[14] = tested on: SN12C
[15] = tested on: SR
[16] = tested on: NCI-H460
[17] = tested on: A498

Row | Compound | GI50 [1] | GI50 [2] | GI50 [3] | GI50 [4] | GI50 [5] | GI50 [6] | GI50 [7] | GI50 [8] | GI50 [9] | GI50 [10] | GI50 [11] | GI50 [12] | GI50 [13] | GI50 [14] | GI50 [15] | GI50 [16] | GI50 [17]
1 | Cc1nn2c3c(nnc2c1C#N)C(=O)NN=C(N)S3 | > 100 µM (inactive) | > 100 µM (inactive) | > 100 µM (inactive) | > 100 µM (inactive) | > 100 µM (inactive) | > 100 µM (inactive) | > 100 µM (inactive) | > 100 µM (inactive) | > 100 µM (inactive) | > 100 µM (inactive) | > 100 µM (inactive) | > 100 µM (inactive) | > 100 µM (inactive) | > 100 µM (inactive) | > 100 µM (inactive) | – | –
2 | FC(F)(F)c1nc(-c2ccccc2Cl)[nH]c1C(F)(F)F | 0.679 µM (active) | 0.542 µM (active) | 0.56 µM (active) | 1.15 µM (inactive) | 1.03 µM (active) | 1.12 µM (inactive) | 0.223 µM (active) | 0.664 µM (active) | 0.746 µM (active) | 1.11 µM (active) | 0.798 µM (active) | 0.893 µM (active) | 1.21 µM (inactive) | 0.705 µM (active) | 0.456 µM (active) | 0.859 µM (active) | –
3 | O=C(CSc1nnc(-c2ccc(/N=C\c3ccc(Cl)cc3)cc2)o1)Nc1ccccc1[N+](=O)[O-] | – | > 100 µM (inactive) | > 100 µM (inactive) | – | > 100 µM (inactive) | > 100 µM (inactive) | – | > 100 µM (inactive) | – | > 100 µM (inactive) | 94.6 µM (inactive) | – | > 100 µM (inactive) | > 100 µM (inactive) | > 100 µM (inactive) | > 100 µM (inactive) | –
4 | O=C1c2ccccc2C(=O)C1C(c1ccc([N+](=O)[O-])cc1)C1C(=O)c2ccccc2C1=O | 28.8 µM (inactive) | > 100 µM (inactive) | > 100 µM (inactive) | – | > 100 µM (inactive) | 55.7 µM (inactive) | 18.5 µM (inactive) | > 100 µM (inactive) | > 100 µM (inactive) | 25.5 µM (inactive) | 14.3 µM (inactive) | 73.8 µM (inactive) | 29 µM (inactive) | 36.6 µM (inactive) | 28.2 µM (inactive) | > 100 µM (inactive) | –
5 | O=c1nc(NC(c2ccccc2)(c2ccccc2)c2ccccc2)ccn1CCNCCn1ccc(NC(c2ccccc2)(c2ccccc2)c2ccccc2)nc1=O | 14.8 µM (inactive) | 10.7 µM (inactive) | 18.7 µM (inactive) | 5.15 µM (inactive) | 3.46 µM (inactive) | 18.3 µM (inactive) | 11.9 µM (inactive) | 14.2 µM (inactive) | 31 µM (inactive) | 10.7 µM (inactive) | 11.8 µM (inactive) | 11.3 µM (inactive) | 6.07 µM (inactive) | 12.4 µM (inactive) | – | 11.8 µM (inactive) | 27 µM (inactive)
6 | CC1CC2C(=O)N(c3ccccc3)C(=O)C2c2c1c1ccccc1n2Cc1ccccc1 (configuration not stated) | > 100 µM (inactive) | 49.8 µM (inactive) | > 100 µM (inactive) | > 100 µM (inactive) | 14.5 µM (inactive) | > 100 µM (inactive) | > 100 µM (inactive) | > 100 µM (inactive) | > 100 µM (inactive) | > 100 µM (inactive) | – | > 100 µM (inactive) | – | > 100 µM (inactive) | 27.2 µM (inactive) | > 100 µM (inactive) | –
7 | C1=C(c2ccccc2)CN(c2ccccc2)OC1 | 56.5 µM (inactive) | > 100 µM (inactive) | 86.9 µM (inactive) | > 100 µM (inactive) | 77.4 µM (inactive) | 83.8 µM (inactive) | > 100 µM (inactive) | > 10 µM (inactive) | 26.8 µM (inactive) | – | 33.5 µM (inactive) | > 100 µM (inactive) | 79.8 µM (inactive) | > 100 µM (inactive) | 55.3 µM (inactive) | > 100 µM (inactive) | –
8 | CCOC(=O)CC[C@H](NC(=O)c1nc[nH]c1[N+](=O)[O-])C(=O)OCC | – | > 100 µM (inactive) | > 100 µM (inactive) | > 100 µM (inactive) | > 100 µM (inactive) | > 100 µM (inactive) | > 100 µM (inactive) | > 100 µM (inactive) | – | > 100 µM (inactive) | > 100 µM (inactive) | > 100 µM (inactive) | > 100 µM (inactive) | > 100 µM (inactive) | 35.7 µM (inactive) | > 100 µM (inactive) | > 100 µM (inactive)
9 | CCCCCCCCCCCC(=O)OCC1OC(n2cc(F)c(=O)[nH]c2=O)C(N)C(OC(=O)CCCCCCCCCCC)C1O (configuration not stated) | > 100 µM (inactive) | 68.4 µM (inactive) | > 100 µM (inactive) | – | 30.2 µM (inactive) | 64.4 µM (inactive) | 47.5 µM (inactive) | 37.3 µM (inactive) | – | 93.1 µM (inactive) | > 100 µM (inactive) | 69.7 µM (inactive) | > 100 µM (inactive) | 60.7 µM (inactive) | 34.4 µM (inactive) | > 100 µM (inactive) | > 100 µM (inactive)
